# Assay results published in patent US20130296228A1, “EFFLUX PUMP INHIBITORS” (priority 2010, published 2013).
# Several values for one entry are separate records, joined by “and”; a condition that tells them apart may be missing. Identical values can stand only once. Like-named read-outs stand apart in the source and are kept apart here. Residues, ends and D or L forms follow the SMILES beside them.
# Key:
# [1] = tested on: MDR clinical isolate of P. aeruginosa 2301; assay: Systemic infection in mice, % survival; type: in vivo; conditions: Table 7, mice, Oral
# P. aeruginosa 2301 [2] = assay: Survival of high density inoculation in MHA medium; type: cell-based; conditions: high density inoculation 2-5 × 10^9 CFU/ml; 20 mcg/ml in MHA medium
# From the text: In a most surprising manner, the combination of ceftazidime and azithromycin and tigecycline respectively brought about more than 7 log reduction in the bacterial count as compared to individual effects in highly resistant Pseudomonas strain. Moreover in a very unusual and surprising manner this tremendous bactericidal effect is taking place at concentrations much below than their individual inhibitory concentrations. […] It is also likely that ceftazidime interacts with outer membrane porins and acts as a porin modulator. Bacalum et al. have shown that ceftazidime binds to outer membrane porins with high affinity (Bacalum et al. Romanian. J. Biophys., 19, 105-116, 2009).
# P. aeruginosa 23587 = assay: Diameter of zone of inhibition of antimicrobial agents with or without efflux pump inhibitor; type: cell-based; conditions: for change of activity in the presence of PAN: clinical isolates P. aeruginosa 23587 and P. aeruginosa 2301; for inhibition of MDR RND efflux pumps, concluded from potentiation: clinical isolates of P. aeruginosa
# From the text: Since RND efflux pumps operate by utilizing energy in […], metabolic inhibitor, sodium azide brings about MDR RND pump inhibition by causing energy deprivation.
# P. aeruginosa 2301 [3] = assay: as above; type: cell-based; conditions: for Diameter of zone of inhibition: P. aeruginosa 2301
# [4] = Table 1, P. aeruginosa 23587, +PAN (20 μg/ml), 12.5 μg/well
# [5] = Table 2, P. aeruginosa (23587), +sodium azide (10 μg/ml), 50 μg/well
# [6] = Table 2, P. aeruginosa (23587), +sodium azide (10 μg/ml), 100 μg/well
# [7] = Table 2, P. aeruginosa (23587), +sodium azide (10 μg/ml), 200 μg/well
# [8] = Table 1, +PAN (20 μg/ml), 12.5 μg/well
molecule,measurement,setting,value
"CS(=O)(=O)O.C[C@H](N)C(=O)OC1CCN(c2c(F)cc3c(=O)c(C(=O)O)cn4c3c2CC[C@@H]4C)CC1 [2′S,5S-(−)-9-Fluoro-8-(4-alaninyloxy-piperidin-1-yl)-5-methyl-6,7-dihydro-1-oxo-1H,5H-benzo[i,j]quinolizine-2-carboxylic acid methane sulfonic acid salt]",% survival,[1]; 50 mg/kg BID × 1 day,0%
same,% survival,[1]; 75 mg/kg BID × 1 day,16.6%
same,% survival,[1]; 100 mg/kg BID × 1 day,16.6%
"CC[C@H]1OC(=O)[C@H](C)[C@@H](O[C@H]2C[C@@](C)(OC)[C@@H](O)[C@H](C)O2)[C@H](C)[C@@H](O[C@@H]2O[C@H](C)C[C@H](N(C)C)[C@H]2O)[C@](C)(O)C[C@@H](C)CN(C)[C@H](C)[C@@H](O)[C@]1(C)O [Azithromycin, azithromycin]",CFU/ml at 48 h,P. aeruginosa 2301 [2],>5 × 10^9 CFU/ml
same,change of activity in presence of reserpine,P. aeruginosa 23587,no change
same,change of activity on addition of sodium azide,P. aeruginosa 23587,potentiated
same,change of activity in the presence of cefepime and ceftazidime,P. aeruginosa 23587; Example 3,significant potentiation
same,Diameter of zone of inhibition,P. aeruginosa 23587; [4],16 m.m.
same,Diameter of zone of inhibition,"P. aeruginosa 23587; Table 1, P. aeruginosa 23587, +PAN (20 μg/ml), 25 μg/well",23.5 m.m.
same,Diameter of zone of inhibition,"P. aeruginosa 23587; Table 1, P. aeruginosa 23587, +PAN (20 μg/ml), 50 μg/well",27 m.m.
same,Diameter of zone of inhibition,"P. aeruginosa 23587; Table 1, P. aeruginosa 23587, Control, 25 μg/well",19H
same,Diameter of zone of inhibition,"P. aeruginosa 23587; Table 1, P. aeruginosa 23587, Control, 50 μg/well",23H
same,Diameter of zone of inhibition,"P. aeruginosa 23587; Table 2, P. aeruginosa (23587), +Reserpine (25 μg/ml), 50 μg/well",12H
same,Diameter of zone of inhibition,"P. aeruginosa 23587; Table 2, P. aeruginosa (23587), +Reserpine (25 μg/ml), 100 μg/well",20H
same,Diameter of zone of inhibition,"P. aeruginosa 23587; Table 2, P. aeruginosa (23587), +Reserpine (25 μg/ml), 200 μg/well",24H
same,Diameter of zone of inhibition,P. aeruginosa 23587; [5],21H
same,Diameter of zone of inhibition,P. aeruginosa 23587; [6],24H
same,Diameter of zone of inhibition,P. aeruginosa 23587; [7],30 m.m.
same,Diameter of zone of inhibition,"P. aeruginosa 23587; Table 2, P. aeruginosa (23587), Control, 50 μg/well",12H
same,Diameter of zone of inhibition,"P. aeruginosa 23587; Table 2, P. aeruginosa (23587), Control, 100 μg/well",20H
same,Diameter of zone of inhibition,"P. aeruginosa 23587; Table 2, P. aeruginosa (23587), Control, 200 μg/well",24H
same,Diameter of zone of inhibition,"P. aeruginosa 23587; Table 3, P. aeruginosa 23587, +Cefepime (1 μg/ml), 100 μg/Well",28H
same,Diameter of zone of inhibition,"P. aeruginosa 23587; Table 3, P. aeruginosa 23587, +Cefepime (1 μg/ml), 200 μg/Well",30H
same,Diameter of zone of inhibition,"P. aeruginosa 23587; Table 3, P. aeruginosa 23587, +Ceftazidime (1 μg/ml), 100 μg/Well",36 m.m.
same,Diameter of zone of inhibition,"P. aeruginosa 23587; Table 3, P. aeruginosa 23587, +Ceftazidime (1 μg/ml), 200 μg/Well",42 m.m.
same,Diameter of zone of inhibition,"P. aeruginosa 23587; Table 3, P. aeruginosa 23587, Control, 100 μg/Well",20H
same,Diameter of zone of inhibition,"P. aeruginosa 23587; Table 3, P. aeruginosa 23587, Control, 200 μg/Well",24H
same,change of activity in the presence of PAN,P. aeruginosa 23587,Synergistic enhancement
same,change of activity in the presence of cefepime and ceftazidime,P. aeruginosa 2301 [3]; Example 6,significant potentiation
same,Diameter of zone of inhibition,P. aeruginosa 2301 [3]; [8],25 m.m.
same,Diameter of zone of inhibition,"P. aeruginosa 2301 [3]; Table 1, +PAN (20 μg/ml), 25 μg/well",28 m.m.
same,Diameter of zone of inhibition,"P. aeruginosa 2301 [3]; Table 1, +PAN (20 μg/ml), 50 μg/well",32 m.m.
same,Diameter of zone of inhibition,"P. aeruginosa 2301 [3]; Table 1, Control, 25 μg/well",SLI
same,Diameter of zone of inhibition,"P. aeruginosa 2301 [3]; Table 1, Control, 50 μg/well",13.5H
same,Diameter of zone of inhibition,"P. aeruginosa 2301 [3]; Table 6, +Cefepime (2 μg/ml), 50 μg/Well",24H
same,Diameter of zone of inhibition,"P. aeruginosa 2301 [3]; Table 6, +Cefepime (2 μg/ml), 100 μg/Well",28H
same,Diameter of zone of inhibition,"P. aeruginosa 2301 [3]; Table 6, +Cefepime (2 μg/ml), 200 μg/Well",30H
same,Diameter of zone of inhibition,"P. aeruginosa 2301 [3]; Table 6, +Ceftazidime (0.5 μg/ml), 50 μg/Well",32H
same,Diameter of zone of inhibition,"P. aeruginosa 2301 [3]; Table 6, +Ceftazidime (0.5 μg/ml), 100 μg/Well",36H
same,Diameter of zone of inhibition,"P. aeruginosa 2301 [3]; Table 6, +Ceftazidime (0.5 μg/ml), 200 μg/Well",42H
same,Diameter of zone of inhibition,"P. aeruginosa 2301 [3]; Table 6, Control, 50 μg/Well",12H
same,Diameter of zone of inhibition,"P. aeruginosa 2301 [3]; Table 6, Control, 100 μg/Well",20H
same,Diameter of zone of inhibition,"P. aeruginosa 2301 [3]; Table 6, Control, 200 μg/Well",24H
"CO/N=C(\C(=O)N[C@@H]1C(=O)N2C(C(=O)[O-])=C(C[N+]3(C)CCCC3)CS[C@H]12)c1csc(N)n1 [Cefepime, cefepime]","inhibition of MDR RND efflux pumps, concluded from potentiation",P. aeruginosa 23587,inhibit RND pumps
"CC[n+]1c(-c2ccccc2)c2cc(N)ccc2c2ccc(N)cc21 [Ethidium Bromide, ethidium bromide]",Diameter of zone of inhibition,P. aeruginosa 23587; [5],10H
same,Diameter of zone of inhibition,P. aeruginosa 23587; [6],13H
same,Diameter of zone of inhibition,P. aeruginosa 23587; [7],16H
"NC(N)=NCCCC(NC(=O)[C@@H](N)Cc1ccccc1)C(=O)Nc1ccc2ccccc2c1 (stereo partly drawn) [PAN, Phe-Arg-beta-naphthylamide] (HELM PEPTIDE1{F.[N=C(N)NCCCC(N[*:1])C(=O)[*:2]].[c1ccc2cc(N[*:1])ccc2c1]}$$$$V2.0)","inhibition of MDR RND efflux pumps, concluded from potentiation",P. aeruginosa 23587,efflux inhibition
"CN(C)c1cc(NC(=O)CNC(C)(C)C)c(O)c2c1C[C@H]1C[C@H]3[C@H](N(C)C)C(O)=C(C(N)=O)C(=O)[C@@]3(O)C(O)=C1C2=O [Tigecycline, tigecycline]",CFU/ml at 48 h,P. aeruginosa 2301 [2],>5 × 10^9 CFU/ml
CC(=O)NC[C@H]1CN(c2ccc(N3CCOCC3)c(F)c2)C(=O)O1 [linezolid],change of activity in the presence of PAN,P. aeruginosa 23587,Synergistic enhancement
COC(=O)[C@H]1[C@H]2C[C@@H]3c4[nH]c5cc(OC)ccc5c4CCN3C[C@H]2C[C@@H](OC(=O)c2cc(OC)c(OC)c(OC)c2)[C@@H]1OC [reserpine],"inhibition of MDR RND efflux pumps, concluded from potentiation",P. aeruginosa 23587,non inhibition
colistin,Diameter of zone of inhibition,P. aeruginosa 23587,12.5 m.m. and 14 m.m. and 16.5 m.m. and 11.5 m.m. and 16 m.m.
same,Diameter of zone of inhibition,P. aeruginosa 23587; [4],16.5 m.m.
same,Diameter of zone of inhibition,"P. aeruginosa 23587; Table 2, P. aeruginosa (23587), +Reserpine (25 μg/ml), 12.5 μg/well",16 m.m.
same,Diameter of zone of inhibition,"P. aeruginosa 23587; Table 2, P. aeruginosa (23587), +sodium azide (10 μg/ml), 12.5 μg/well",16 m.m.
same,Diameter of zone of inhibition,"P. aeruginosa 23587; Table 3, P. aeruginosa 23587, +Cefepime (1 μg/ml), 12.5 μg/Well",16 m.m.
same,Diameter of zone of inhibition,"P. aeruginosa 23587; Table 3, P. aeruginosa 23587, +Ceftazidime (1 μg/ml), 12.5 μg/Well",16 m.m.
same,change of activity in the presence of PAN,P. aeruginosa 23587,no change
same,Diameter of zone of inhibition,P. aeruginosa 2301 [3]; [8],16 m.m.
same,Diameter of zone of inhibition,"P. aeruginosa 2301 [3]; Table 6, +Cefepime (2 μg/ml), 12.5 μg/Well",16 m.m.
same,Diameter of zone of inhibition,"P. aeruginosa 2301 [3]; Table 6, +Ceftazidime (0.5 μg/ml), 12.5 μg/Well",16 m.m.
